Source: patent publication US9751858B2, “3-heteroaroylamino-propionic acid derivatives and their use as pharmaceuticals” (SANOFI, priority 2011, dated 2017)

Target: T1, Recombinant human cathepsin A (Homo sapiens, UniProt P10619)
T1 construct: Recombinant human cathepsin A (residues 29-480, with a C-terminal 10-His tag); 10-His (C); purchased R&D Systems 1049-SE
T1 sequence (P10619 29-326 limits assumed): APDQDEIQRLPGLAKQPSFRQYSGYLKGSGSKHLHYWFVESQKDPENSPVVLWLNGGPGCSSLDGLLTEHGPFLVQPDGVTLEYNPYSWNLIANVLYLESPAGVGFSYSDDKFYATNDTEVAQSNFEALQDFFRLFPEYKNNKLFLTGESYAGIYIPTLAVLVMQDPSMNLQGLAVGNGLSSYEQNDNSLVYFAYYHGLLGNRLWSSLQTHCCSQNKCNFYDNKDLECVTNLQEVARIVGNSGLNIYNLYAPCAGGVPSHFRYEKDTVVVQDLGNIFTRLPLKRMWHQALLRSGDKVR
T1 sequence (P10619 327-480 limits assumed): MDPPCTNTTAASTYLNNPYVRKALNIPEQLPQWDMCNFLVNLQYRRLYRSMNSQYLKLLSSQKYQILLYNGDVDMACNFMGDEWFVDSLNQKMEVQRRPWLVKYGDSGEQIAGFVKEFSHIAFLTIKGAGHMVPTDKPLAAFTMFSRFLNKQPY
Test: Cathepsin A inhibitory activity
Assay type: biochemical
Conditions: activated recombinant human cathepsin A 833 ng/ml, Bodipy FL-labeled bradykinin 2 μM, pH 5.5, 15 min room temperature
Outline: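 Cathepsin A activated by cathepsin L (15 min, 37 °C, pH 6.0), then preincubated 15 min at room temperature with compound in 25 mM MES pH 5.5, 5 mM DTT. Bodipy FL-bradykinin cleavage ran 15 min at room temperature; substrate and product separated by microfluidic capillary electrophoresis, turnover from peak areas.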

IC50 [µM] | SMILES
> 10 | Cc1ccccc1[C@H](CC(=O)O)NC(=O)c1nn(C)cc1NS(=O)(=O)CC(C)(C)C [Example 95, (S)-3-{[4-(2,2-Dimethyl-propane-1-sulfonylamino)-1-methyl-1H-pyrazole-3-carbonyl]-amino}-3-o-tolyl-propionic acid]
10.3 | O=C(O)C[C@H](NC(=O)c1nc(-c2ccccc2)oc1C(F)(F)F)c1cccc(Cl)c1 [Example 96, (S)-3-(3-Chloro-phenyl)-3-[(2-phenyl-5-trifluoromethyl-oxazole-4-carbonyl)-amino]-propionic acid]
7.37 | O=C(O)C[C@H](NC(=O)c1nc(-c2ccccc2)oc1C(F)(F)F)c1ccccc1Cl [Example 97, (S)-3-(2-Chloro-phenyl)-3-[(2-phenyl-5-trifluoromethyl-oxazole-4-carbonyl)-amino]-propionic acid]
0.075 | Cc1ccccc1[C@H](CC(=O)O)NC(=O)c1cc(-c2ccccc2)n(Cc2ccccc2)n1 [Example 98, (S)-3-[(1-Benzyl-5-phenyl-1H-pyrazole-3-carbonyl)-amino]-3-o-tolyl-propionic acid]
> 10 | O=C(N[C@@H](Cc1ccc(Cl)cc1)C(=O)O)c1noc(-c2cnccc2C(F)(F)F)n1 [Example 99, (S)-3-(4-Chloro-phenyl)-2-{[5-(4-trifluoromethyl-pyridin-3-yl)-[1,2,4]oxadiazole-3-carbonyl]-amino}-propionic acid]
4.75 | CCCC1CCCCN1C(=O)c1cc(C(=O)N[C@@H](CC(=O)O)c2ccccc2)nn1CC (stereo partly drawn) [Example 100, (S)-3-{[1-Ethyl-5-(2-propyl-piperidine-1-carbonyl)-1H-pyrazole-3-carbonyl]-amino}-3-phenyl-propionic acid]
> 10 | O=C(O)C[C@H](NC(=O)c1noc(-c2cccc(F)c2F)n1)c1ccccc1C(F)(F)F [Example 101, (S)-3-{[5-(2,3-Difluoro-phenyl)-[1,2,4]oxadiazole-3-carbonyl]-amino}-3-(2-trifluoromethyl-phenyl)-propionic acid]
0.44 | COc1cccc([C@H](CC(=O)O)NC(=O)c2nc(-c3ccccc3)n(-c3ccccc3)n2)c1 [Example 102, (S)-3-[(1,5-Diphenyl-1H-[1,2,4]triazole-3-carbonyl)-amino]-3-(3-methoxy-phenyl)-propionic acid]
0.598 | CC(C)c1oc(-c2ccccc2)nc1C(=O)N[C@@H](CC(=O)O)c1cccc(Cl)c1Cl [Example 103, (S)-3-(2,3-Dichloro-phenyl)-3-[(5-isopropyl-2-phenyl-oxazole-4-carbonyl)-amino]-propionic acid]
0.128 | O=C(O)C[C@H](NC(=O)c1nc(-c2ccccc2)n(-c2ccccc2)n1)c1cccc(Cl)c1 [Example 104, (S)-3-(3-Chloro-phenyl)-3-[(1,5-diphenyl-1H-[1,2,4]triazole-3-carbonyl)-amino]-propionic acid]
9.21 | CC(C)c1oc(-c2ccccc2)nc1C(=O)N[C@@H](CC(=O)O)c1ccc(Cl)cc1Cl [Example 105, (S)-3-(2,4-Dichloro-phenyl)-3-[(5-isopropyl-2-phenyl-oxazole-4-carbonyl)-amino]-propionic acid]
0.119 | O=C(O)C[C@H](NC(=O)c1nc(-c2ccccc2)n(-c2ccccc2)n1)c1ccccc1Cl [Example 106, (S)-3-(2-Chloro-phenyl)-3-[(1,5-diphenyl-1H-[1,2,4]triazole-3-carbonyl)-amino]-propionic acid]
0.545 | CCc1nc(C(=O)N[C@@H](CC(=O)O)c2ccc(C)cc2)nn1-c1c(Cl)cccc1Cl [Example 107, (S)-3-{[1-(2,6-Dichloro-phenyl)-5-ethyl-1H-[1,2,4]triazole-3-carbonyl]-amino}-3-p-tolyl-propionic acid]
0.35 | CCc1nc(C(=O)N[C@@H](CC(=O)O)c2ccccc2C)nn1-c1c(Cl)cccc1Cl [Example 108, (S)-3-{[1-(2,6-Dichloro-phenyl)-5-ethyl-1H-[1,2,4]triazole-3-carbonyl]-amino}-3-o-tolyl-propionic acid]
> 10 | Cn1cc(NS(=O)(=O)CC2CCCCC2)c(C(=O)N[C@@H](CC(=O)O)c2ccccc2)n1 [Example 109, (S)-3-[(4-Cyclohexylmethanesulfonylamino-1-methyl-1H-pyrazole-3-carbonyl)-amino]-3-phenyl-propionic acid]
> 10 | O=C(O)C[C@H](NC(=O)CCc1nc(-c2ccccc2F)no1)c1ccccc1C(F)(F)F [Example 110, (S)-3-{3-[3-(2-Fluoro-phenyl)-[1,2,4]oxadiazol-5-yl]-propionylamino}-3-(2-trifluoromethyl-phenyl)-propionic acid]
> 10 | O=C(O)C[C@H](NC(=O)CCc1nc(-c2ccccc2F)no1)c1ccc(C(F)(F)F)cc1 [Example 111, (S)-3-{3-[3-(2-Fluoro-phenyl)-[1,2,4]oxadiazol-5-yl]-propionylamino}-3-(4-trifluoromethyl-phenyl)-propionic acid]
> 10 | O=C(O)C[C@H](NC(=O)CCc1nc(-c2ccccc2F)no1)c1cccc(Cl)c1Cl [Example 112, (S)-3-(2,3-Dichloro-phenyl)-3-{3-[3-(2-fluoro-phenyl)-[1,2,4]oxadiazol-5-yl]-propionylamino}-propionic acid]
> 10 | O=C(O)C[C@H](NC(=O)CCc1nc(-c2ccccc2F)no1)c1cccc(C(F)(F)F)c1 [Example 113, (S)-3-{3-[3-(2-Fluoro-phenyl)-[1,2,4]oxadiazol-5-yl]-propionylamino}-3-(3-trifluoromethyl-phenyl)-propionic acid]
0.81 | CCCC1CCCCN1C(=O)c1cc(C(=O)N[C@@H](CC(=O)O)c2ccccc2C)nn1CC (stereo partly drawn) [Example 114, (S)-3-{[1-Ethyl-5-(2-propyl-piperidine-1-carbonyl)-1H-pyrazole-3-carbonyl]-amino}-3-o-tolyl-propionic acid]
2.5 | CCCC1CCCCN1C(=O)c1cc(C(=O)N[C@@H](CC(=O)O)c2ccc(C)cc2)nn1CC (stereo partly drawn) [Example 115, (S)-3-{[1-Ethyl-5-(2-propyl-piperidine-1-carbonyl)-1H-pyrazole-3-carbonyl]-amino}-3-p-tolyl-propionic acid]
4.56 | CCCC1CCCCN1C(=O)c1cc(C(=O)N[C@@H](CC(=O)O)c2cccc(C)c2)nn1CC (stereo partly drawn) [Example 116, (S)-3-{[1-Ethyl-5-(2-propyl-piperidine-1-carbonyl)-1H-pyrazole-3-carbonyl]-amino}-3-m-tolyl-propionic acid]
> 10 | Cc1ccccc1[C@H](CC(=O)O)NC(=O)c1nn(C)cc1NS(=O)(=O)Cc1ccccc1 [Example 117, (S)-3-[(1-Methyl-4-phenylmethanesulfonylamino-1H-pyrazole-3-carbonyl)-amino]-3-o-tolyl-propionic acid]
1.54 | Cc1ccccc1[C@H](CC(=O)O)NC(=O)c1cc(-c2ccccc2)n(Cc2ccc(F)cc2)n1 [Example 118, (S)-3-{[1-(4-Fluoro-benzyl)-5-phenyl-1H-pyrazole-3-carbonyl]-amino}-3-o-tolyl-propionic acid]
> 10 | Cc1ccccc1[C@H](CC(=O)O)NC(=O)c1nn(C)cc1NS(=O)(=O)CC1CCCCC1 [Example 119, (S)-3-[(4-Cyclohexylmethanesulfonylamino-1-methyl-1H-pyrazole-3-carbonyl)-amino]-3-o-tolyl-propionic acid]
